Data reported in patent US20230250066A1, “HERBICIDAL CINNOLINE DERIVATIVES” (SYNGENTA CROP PROTECTION AG, priority 2020, published 2023).

Tests used:
Format in all cases: in vivo
Zea mays (ZEAMX) [1] = experiment: Pre-emergence herbicidal test; conditions: 1000 g/ha, evaluated after 13 days
Setaria faberi (SETFA) [2] = experiment: Pre-emergence herbicidal test; conditions: 1000 g/ha, evaluated after 13 days
[3] = system: Echinochloa crus-galli (ECHCG); experiment: Pre-emergence herbicidal test; conditions: 1000 g/ha, evaluated after 13 days
[4] = system: Amaranthus retoflexus (AMARE); experiment: Pre-emergence herbicidal test; conditions: 1000 g/ha, evaluated after 13 days
[5] = system: Abutilon theophrasti (ABUTH); experiment: Pre-emergence herbicidal test; conditions: 1000 g/ha, evaluated after 13 days
[6] = system: Ipomoea hederacea (IPOHE); experiment: Pre-emergence herbicidal test; conditions: 1000 g/ha, evaluated after 13 days
[7] = system: Echinochloa crus-galli (ECHCG); experiment: Post-emergence herbicidal test; conditions: 1000 g/ha unless otherwise stated, evaluated after 13 days
Summary of the method: (§1)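 Spray treatment, 1000 g/ha unless noted; vehicle acetone/water (50:50), 0.5% Tween 20. Glasshouse 24/16° C., 14 h light, 65% humidity. Percent injury rated at 13 d, banded 0–5.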

Setaria faberi (SETFA) [8] = experiment: Post-emergence herbicidal test; conditions: 1000 g/ha unless otherwise stated, evaluated after 13 days
Summary of the method: as §1

[9] = system: Ipomoea hederacea (IPOHE); experiment: Post-emergence herbicidal test; conditions: 1000 g/ha unless otherwise stated, evaluated after 13 days
Summary of the method: as §1

[10] = system: Amaranthus retoflexus (AMARE); experiment: Post-emergence herbicidal test; conditions: 1000 g/ha unless otherwise stated, evaluated after 13 days
Summary of the method: as §1

Zea mays (ZEAMX) [11] = experiment: Post-emergence herbicidal test; conditions: 1000 g/ha unless otherwise stated, evaluated after 13 days
Summary of the method: as §1

[12] = system: Abutilon theophrasti (ABUTH); experiment: Post-emergence herbicidal test; conditions: 1000 g/ha unless otherwise stated, evaluated after 13 days
Summary of the method: as §1

| Structure (SMILES) | percentage damage caused to the plant, five-point scale, ZEAMX (Zea mays (ZEAMX) [1]) | percentage damage caused to the plant, five-point scale, SETFA (Setaria faberi (SETFA) [2]) | percentage damage caused to the plant, five-point scale, ECHCG [3] | percentage damage caused to the plant, five-point scale, AMARE [4] | percentage damage caused to the plant, five-point scale, ABUTH [5] | percentage damage caused to the plant, five-point scale, IPOHE [6] | percentage damage caused to the plant, ECHCG (five-point scale) [7] | percentage damage caused to the plant, SETFA (five-point scale) (Setaria faberi (SETFA) [8]) | percentage damage caused to the plant, IPOHE (five-point scale) [9] | percentage damage caused to the plant, AMARE (five-point scale) [10] | percentage damage caused to the plant, ZEAMX (five-point scale) (Zea mays (ZEAMX) [11]) | percentage damage caused to the plant, ABUTH (five-point scale) [12] |
| --- | --- | --- | --- | --- | --- | --- | --- | --- | --- | --- | --- | --- |
| O=C(O)c1nn(-c2ccc(OC(F)(F)F)cc2)c2cccc(S(=O)(=O)CC(F)(F)F)c2c1=O [Compound P35, 4-oxo-5-(2,2,2-trifluoroethylsulfonyl)-1-[4-(trifluoromethoxy)phenyl]cinnoline-3-carboxylic acid] | 1 (1=10-20%) | 0 (0=0%) | 0 (0=0%) | 0 (0=0%) | 1 (1=10-20%) | 0 (0=0%) | 1 (1=10-20%) | 2 (2=21-40%) | 0 (0=0%) | 1 (1=10-20%) | 1 (1=10-20%) | 1 (1=10-20%) |
| CCOC(=O)c1nn(-c2ccc(Cl)cc2F)c2cccc(S(C)(=O)=O)c2c1=O [Compound P42, ethyl 1-(4-chloro-2-fluoro-phenyl)-5-methylsulfonyl-4-oxo-cinnoline-3-carboxylate] | 0 (0=0%) | 4 (4=61-80%) | 3 (3=41-60%) | 0 (0=0%) | 1 (1=10-20%) | 1 (1=10-20%) | 4 (4=61-80%) | 4 (4=61-80%) | 1 (1=10-20%) | 1 (1=10-20%) | 1 (1=10-20%) | 1 (1=10-20%) |
| COc1cc(S(C)(=O)=O)c2c(=O)c(C(=O)O)nn(-c3ccc(OC(F)(F)F)cc3)c2c1 [Compound P19, 7-methoxy-5-methylsulfonyl-4-oxo-1-[4-(trifluoromethoxy)phenyl]cinnoline-3-carboxylic acid] | 0 (0=0%) | 5 (5=81-100%) | 2 (2=21-40%) | 1 (1=10-20%) | 0 (0=0%) | 0 (0=0%) | 2 (2=21-40%) | 3 (3=41-60%) | 1 (1=10-20%) | 1 (1=10-20%) | 1 (1=10-20%) | 1 (1=10-20%) |
| CCOC(=O)c1nn(-c2ccc(OC(F)(F)F)cc2)c2cccc([S+]([O-])C3CC3)c2c1=O (stereo not drawn) [Compound P32, ethyl 5-cyclopropylsulfinyl-4-oxo-1-[4-(trifluoromethoxy)phenyl]cinnoline-3-carboxylate] | 0 (0=0%) | 2 (2=21-40%) | 1 (1=10-20%) | 0 (0=0%) | 0 (0=0%) | 0 (0=0%) | 1 (1=10-20%) | 1 (1=10-20%) | 0 (0=0%) | 0 (0=0%) | 1 (1=10-20%) | 0 (0=0%) |
